Measurements as given in patent US8618046B2, “Treatment of atherosclerosis with cholesterol ester transport protein mimotopes” (Affiris AG, priority 2007, dated 2013).
“Also recorded” adds a separate entry of the source. Where no end group is shown, it is not given here.

How the values were obtained:
original epitope (p4073) = assay: Titer to the original CETP epitope in sera of immunised animals (peptide ELISA); type: in vivo, mouse; conditions: for antibody response to the original CETP epitope (in words): coupled to KLH, mice and rabbits; for titer, original epitope-BSA: FIG. 11, Balb/c mice, 30 μg peptide, Alum as adjuvant, S3, coating 1 μM p4073-BSA, detection αIgG
Procedure: (§1) Balb/c mice/30 μg Peptide, 2 injections in 2 week intervals. S3=2 weeks after 3rd injection. Alum as adjuvant. Titers against original epitope (p4073) induced by injection of mimotopes. Well coating: 50 μl of 1 μM p4073-BSA or 1 μg/ml activated KLH. Detection: αIgG:
(§2) Inhibiting as well as some non-inhibiting peptides were coupled to KLH and injected into mice (wildtype or CETP-transgenic mice; subcutaneously into the flank or intra-dermaly into the ears) or rabbits (subcutaneously into the flank) together with an appropriate adjuvant (aluminium hydroxide and Gerbu 100 for mice and aluminium hydroxide or CFA/IFA for rabbits).
(§3) Titers to injected peptides as well as to the original CETP epitope were determined. In addition, for selected sera also immune response to CETP protein was measured (Results see FIGS. 7a to 7d and FIGS. 19a to 19e).
(§4) Subcutaneous injections in the flank were performed in week 1, week 3 and week 7 with 30 μg peptide-KLH per mouse. Intradermal injections in the ear were performed in week 1, week 3 and week 6 with 10 μg peptide-KLH per mouse. Sera were taken 2 weeks after the 3rd injection. Vaccine formulation with Alum (always 1 mg per mouse): up to 250 μl, injected into one flank. The Alum formulation with 1 ml per mouse (500 μl into each flank) was in 1×PBS as buffer.
Vaccine formulation with Gerbu Adjuvant 100 (Gerbu Cat. Nr. #3100; always 50 μl adjuvant per mouse): 200 μl, 100 μl injected into each flank comprising 1×HEPES as buffer. […]

irrelevant peptide-BSA = assay: Titer to irrelevant peptide in sera of immunised animals (peptide ELISA); type: in vivo, mouse; conditions: for titer, p irrelevant: Table 1, mice, sera 2 weeks after 3rd injection; for titer, irrelevant peptide-BSA: FIG. 11, Balb/c mice, 30 μg peptide, Alum as adjuvant, S3, detection αIgG
Procedure: as §1, §4
Vaccine formulation with Gerbu Adjuvant 100 (Gerbu Cat. Nr. #3100; always 50 μl adjuvant per mouse): 200 μl, 100 μl injected into each flank comprising 1×HEPES as buffer.
Female Balb/c mice, five mice per group, were subcutaneously immunized with 30 μg peptide coupled to KLH. Control groups were administered KLH or C-[…] (SEQ ID NO. 147). As adjuvant alum was used. […] The in vitro ELISA assay to determine the antibody titer was performed with pooled sera after two vaccinations in a two week interval (S2; see FIGS. 7a to 7d). The wells of the ELISA plate were coated with KLH (positive control), mimotope-BSA conjugate, C-[…] (SEQ ID NO. 147) and a irrelevant peptide-BSA conjugate (negative control). The detection was performed with anti-mouse IgG.

injected peptide-BSA = assay: Titer to the injected peptide in sera of immunised animals (peptide ELISA); type: in vivo, mouse; conditions: FIG. 11; Balb/c mice, 30 μg peptide, Alum as adjuvant; S3 = 2 weeks after 3rd injection; detection αIgG
Procedure: Balb/c mice/30 μg Peptide, 2 injections in 2 week intervals. S3=2 weeks after 3rd injection. Alum as adjuvant. […] Detection: αIgG:
as §2, §3
as §4, with “buffer. […]” for “buffer.”

rabbit CETP = assay: Anti-protein ELISA of sera of immunised mice, plates coated with purified rabbit CETP; type: in vivo, mouse
Description: (§5) FIGS. 12a and 12b show the in vivo induction of CETP specific antibodies by the administration of the mimotopes of the invention. Titers to p4073 and its correlation to titers to CETP of selected groups (which show high titers against p4073): gr.4, gr.9, gr.10, gr.14, gr.16-20/gr.1 (KLH), gr.2 (original epitope) as controls. Coating: recombinant GST-CETP or purified rabbit CETP, respectively:
(§6) Sera of each group (5 Balb/c mice each) were combined, diluted 1:100 and tested on ELISA plates coated with recombinant GST-CETP or rabbit CETP, respectively. Detection of bound antibodies was with algG.
as §3

recombinant GST-CETP = assay: Anti-protein ELISA of sera of immunised mice, plates coated with recombinant GST-CETP; type: in vivo
Description: as §5, §6, §3

CETP = CETP activity assay: human serum mixed with serum from vaccinated wild-type mice; type: biochemical; conditions: FIGS. 15 to 17 and remarks in the example set-up table, sera of vaccinated mice
[1] = FIG. 12a, sera of immunised mice, purified rabbit CETP
[2] = FIG. 12a, sera of immunised mice
[3] = FIG. 12b, sera of immunised mice, purified rabbit CETP
[4] = FIG. 12b, sera of immunised mice
[5] = FIG. 13, combined sera of 5 Balb/c mice, diluted 1:100

Row | Substance | titer, original epitope-BSA (original epitope (p4073)) | titer, injected peptide-BSA (injected peptide-BSA) | ELISA signal, rabbit CETP (rabbit CETP; [1]) | ELISA signal, recombinant GST-CETP (recombinant GST-CETP; [2]) | titer, irrelevant peptide-BSA (irrelevant peptide-BSA) | other results
1 | C-RMFPESFLDTLW (N-terminal Cys; CETP mimotope) [P12-21] | – | – | – | – | – | antibody response to the original CETP epitope (in words) (original epitope (p4073)): induced an immune response to the original CETP epitope in wt mice and in rabbits
2 | C-SANPRDFLETLF (N-terminal Cys; CETP mimotope) [P12-19] | – | – | – | – | – | antibody response to the original CETP epitope (in words) (original epitope (p4073)): induced an immune response to the original CETP epitope in wt mice and in rabbits
3 | C-TIYDSFLDSLAS (N-terminal Cys; CETP mimotope) [P12-37] | – | – | – | – | – | antibody response to the original CETP epitope (in words) (original epitope (p4073)): did not induce an antibody response to the original epitope
4 | p4181-KLH: F3-6 C-NFLKTLS coupled to KLH (CNFLKTLS; also: coupled to KLH) | – | – | – | – | – | titer, p irrelevant (irrelevant peptide-BSA; Alum s.c. (30 μg peptide)): no titer; titer, p irrelevant (irrelevant peptide-BSA; KLH/Alum i.d. (10 μg peptide)): no titer
5 | p4184-KLH: F3-18 C-DFLRTLT coupled to KLH (CDFLRTLT; also: coupled to KLH) | – | – | – | – | – | titer, p irrelevant (irrelevant peptide-BSA; KLH/Alum i.d. (10 μg peptide)): no titer
6 | p4187-KLH: F3-34 C-TFLSSLA coupled to KLH (CTFLSSLA; also: coupled to KLH) | – | – | – | – | – | titer, p irrelevant (irrelevant peptide-BSA; Alum s.c. (30 μg peptide)): no titer; titer, p irrelevant (irrelevant peptide-BSA; KLH/Gerbu s.c. (30 μg peptide)): no titer
7 | p4188-KLH: F3-38 C-GFLDSLM coupled to KLH (CGFLDSLM; also: coupled to KLH) | – | – | – | – | – | titer, p irrelevant (irrelevant peptide-BSA; Alum s.c. (30 μg peptide)): no titer; titer, p irrelevant (irrelevant peptide-BSA; KLH/Alum i.d. (10 μg peptide)): no titer
8 | p4223-KLH: F2-9; C-SFLDTLT coupled to KLH (CSFLDTLT; also: coupled to KLH) | – | – | – | – | – | titer, p irrelevant (irrelevant peptide-BSA; Alum s.c. (30 μg peptide)): no titer
9 | p4227-KLH: P12-19; C-SANPRDFLETLF coupled to KLH (CSANPRDFLETLF; also: coupled to KLH) | – | – | – | – | – | titer, P4073 (FGFPEHLLVDFLQSLS) (original epitope (p4073); Table 1, KLH/Alum i.d. (10 μg peptide), mice, sera 2 weeks after 3rd injection): no titer; titer, p irrelevant (irrelevant peptide-BSA; Alum s.c. (30 μg peptide)): no titer; titer, p irrelevant (irrelevant peptide-BSA; KLH/Alum i.d. (10 μg peptide)): no titer
10 | p4228-KLH: P12-21; C-RMFPESFLDTLW coupled to KLH (CRMFPESFLDTLW; also: coupled to KLH) | – | – | – | – | – | titer, p irrelevant (irrelevant peptide-BSA; KLH/Alum i.d. (10 μg peptide)): no titer; titer, p irrelevant (irrelevant peptide-BSA; KLH/Gerbu s.c. (30 μg peptide)): no titer
11 | p4324-KLH: C-FGFPSHLIIDWAQSLS coupled to KLH (CFGFPSHLIIDWAQSLS; also: coupled to KLH) | 7.600 | 12.570 | 0.28 | 0.58 | 10 | –
12 | p4325-KLH: C-FGFPSHLIIDWLQSLS coupled to KLH (CFGFPSHLIIDWLQSLS; also: coupled to KLH) | 1.820 | 2.930 | – | – | 10 | inhibition of CETP activity in human serum (in words) (CETP; listed as p4325-KLH/Alum): inhibits significantly CETP activity; also recorded: C-31 and C-33; sera inhibiting; ELISA signal, rabbit CETP (rabbit CETP; [3]): 0.85; ELISA signal, recombinant GST-CETP (recombinant GST-CETP; [4]): 0.59
13 | p4340-KLH: C-PGFPAHVSIDWLQSLS coupled to KLH (CPGFPAHVSIDWLQSLS; also: coupled to KLH) | 15.640 | 18.100 | 0.21 | 0.49 | 10 | –
14 | p4341-KLH: C-WGFPAHVSIDWLQSLS coupled to KLH (CWGFPAHVSIDWLQSLS; also: coupled to KLH) | 5.500 | 10.350 | 0.18 | 0.39 | 10 | –
15 | p4342-KLH: C-FSFPAHVSIDWLQSLS coupled to KLH (CFSFPAHVSIDWLQSLS; also: coupled to KLH) | 1.610 | 4.620 | – | – | 10 | ELISA signal, rabbit CETP (rabbit CETP; [3]): 0.41; ELISA signal, recombinant GST-CETP (recombinant GST-CETP; [4]): 0.38
16 | p4344-KLH: C-FDFPAHVSIDWLQSLS coupled to KLH (CFDFPAHVSIDWLQSLS; also: coupled to KLH) | 3.580 | 12.200 | – | – | 10 | ELISA signal, rabbit CETP (rabbit CETP; [3]): 0.43; ELISA signal, recombinant GST-CETP (recombinant GST-CETP; [4]): 0.35
17 | p4345-KLH: C-FATPSHLIIDWLQSLS coupled to KLH (CFATPSHLIIDWLQSLS; also: coupled to KLH) | 1.270 | 8.380 | – | – | 10 | ELISA signal, rabbit CETP (rabbit CETP; [3]): 0.46; ELISA signal, recombinant GST-CETP (recombinant GST-CETP; [4]): 0.39
18 | p4347-KLH: C-FGFPAHVSIDWLQLLS coupled to KLH (CFGFPAHVSIDWLQLLS; also: coupled to KLH) | 9.160 | 12.000 | 0.2 | 0.35 | 10 | –
19 | p4351-KLH: C-FGFPAHVSIDWLQYLS coupled to KLH (CFGFPAHVSIDWLQYLS; also: coupled to KLH) | 2.400 | 2.950 | – | – | 10 | ELISA signal, rabbit CETP (rabbit CETP; [3]): 0.59; ELISA signal, recombinant GST-CETP (recombinant GST-CETP; [4]): 0.54
20 | p4352-KLH: C-FGFPAHVSIDWLQSIS coupled to KLH (CFGFPAHVSIDWLQSIS; also: coupled to KLH) | 12.070 | 19.680 | 0.28 | 0.48 | 10 | –
21 | p4353-KLH: C-FGFPAHVSIDWLQSLT coupled to KLH (CFGFPAHVSIDWLQSLT; also: coupled to KLH) | 8.650 | 11.200 | 0.39 | 0.57 | 10 | –
22 | p4358-KLH: C-FGFPAHISIDWLQSLS coupled to KLH (CFGFPAHISIDWLQSLS; also: coupled to KLH) | 12.940 | 16.500 | 0.58 | 0.68 | 10 | –
23 | p4359-KLH: C-FGFPAHIIIDWLQSLS coupled to KLH (CFGFPAHIIIDWLQSLS; also: coupled to KLH) | 5.340 | 8.540 | 0.54 | 0.79 | 10 | –
24 | p4362-KLH/Alum: C-FGFPAHVYIDWLQSLS coupled to KLH, Alum (CFGFPAHVYIDWLQSLS; also: coupled to KLH) | – | – | – | – | – | inhibition of CETP activity in human serum (in words) (CETP): inhibits significantly CETP activity; ELISA signal, rabbit CETP (rabbit CETP; [5]): 0.94; ELISA signal, recombinant GST-CETP (recombinant GST-CETP; [5]): 0.86
25 | p4366-KLH: C-FGFPSHLIIDWSQSLS coupled to KLH (CFGFPSHLIIDWSQSLS; also: coupled to KLH) | 3.600 | 4.700 | – | – | 10 | ELISA signal, rabbit CETP (rabbit CETP; [3]): 0.65; ELISA signal, recombinant GST-CETP (recombinant GST-CETP; [4]): 0.4
